From ChEMBL document CHEMBL5653615 (J Biol Chem, 2013) come the findings set out here.

For assay [1], the target named is Proto-oncogene tyrosine-protein kinase ROS (Homo sapiens) (UniProt P08922). Nature of the assay: Inhibition of human ROS1 at 18.6 nM by HotSpot assay relative to control.
In assay [2] the target is Leucine-rich repeat serine/threonine-protein kinase 2 (Homo sapiens) (UniProt Q5S007). As to the kind of experiment: Inhibition of human LRRK2 at 18.6 nM by HotSpot assay relative to control.
Sequence of Leucine-rich repeat serine/threonine-protein kinase 2 (Homo sapiens) (Q5S007 whole entry): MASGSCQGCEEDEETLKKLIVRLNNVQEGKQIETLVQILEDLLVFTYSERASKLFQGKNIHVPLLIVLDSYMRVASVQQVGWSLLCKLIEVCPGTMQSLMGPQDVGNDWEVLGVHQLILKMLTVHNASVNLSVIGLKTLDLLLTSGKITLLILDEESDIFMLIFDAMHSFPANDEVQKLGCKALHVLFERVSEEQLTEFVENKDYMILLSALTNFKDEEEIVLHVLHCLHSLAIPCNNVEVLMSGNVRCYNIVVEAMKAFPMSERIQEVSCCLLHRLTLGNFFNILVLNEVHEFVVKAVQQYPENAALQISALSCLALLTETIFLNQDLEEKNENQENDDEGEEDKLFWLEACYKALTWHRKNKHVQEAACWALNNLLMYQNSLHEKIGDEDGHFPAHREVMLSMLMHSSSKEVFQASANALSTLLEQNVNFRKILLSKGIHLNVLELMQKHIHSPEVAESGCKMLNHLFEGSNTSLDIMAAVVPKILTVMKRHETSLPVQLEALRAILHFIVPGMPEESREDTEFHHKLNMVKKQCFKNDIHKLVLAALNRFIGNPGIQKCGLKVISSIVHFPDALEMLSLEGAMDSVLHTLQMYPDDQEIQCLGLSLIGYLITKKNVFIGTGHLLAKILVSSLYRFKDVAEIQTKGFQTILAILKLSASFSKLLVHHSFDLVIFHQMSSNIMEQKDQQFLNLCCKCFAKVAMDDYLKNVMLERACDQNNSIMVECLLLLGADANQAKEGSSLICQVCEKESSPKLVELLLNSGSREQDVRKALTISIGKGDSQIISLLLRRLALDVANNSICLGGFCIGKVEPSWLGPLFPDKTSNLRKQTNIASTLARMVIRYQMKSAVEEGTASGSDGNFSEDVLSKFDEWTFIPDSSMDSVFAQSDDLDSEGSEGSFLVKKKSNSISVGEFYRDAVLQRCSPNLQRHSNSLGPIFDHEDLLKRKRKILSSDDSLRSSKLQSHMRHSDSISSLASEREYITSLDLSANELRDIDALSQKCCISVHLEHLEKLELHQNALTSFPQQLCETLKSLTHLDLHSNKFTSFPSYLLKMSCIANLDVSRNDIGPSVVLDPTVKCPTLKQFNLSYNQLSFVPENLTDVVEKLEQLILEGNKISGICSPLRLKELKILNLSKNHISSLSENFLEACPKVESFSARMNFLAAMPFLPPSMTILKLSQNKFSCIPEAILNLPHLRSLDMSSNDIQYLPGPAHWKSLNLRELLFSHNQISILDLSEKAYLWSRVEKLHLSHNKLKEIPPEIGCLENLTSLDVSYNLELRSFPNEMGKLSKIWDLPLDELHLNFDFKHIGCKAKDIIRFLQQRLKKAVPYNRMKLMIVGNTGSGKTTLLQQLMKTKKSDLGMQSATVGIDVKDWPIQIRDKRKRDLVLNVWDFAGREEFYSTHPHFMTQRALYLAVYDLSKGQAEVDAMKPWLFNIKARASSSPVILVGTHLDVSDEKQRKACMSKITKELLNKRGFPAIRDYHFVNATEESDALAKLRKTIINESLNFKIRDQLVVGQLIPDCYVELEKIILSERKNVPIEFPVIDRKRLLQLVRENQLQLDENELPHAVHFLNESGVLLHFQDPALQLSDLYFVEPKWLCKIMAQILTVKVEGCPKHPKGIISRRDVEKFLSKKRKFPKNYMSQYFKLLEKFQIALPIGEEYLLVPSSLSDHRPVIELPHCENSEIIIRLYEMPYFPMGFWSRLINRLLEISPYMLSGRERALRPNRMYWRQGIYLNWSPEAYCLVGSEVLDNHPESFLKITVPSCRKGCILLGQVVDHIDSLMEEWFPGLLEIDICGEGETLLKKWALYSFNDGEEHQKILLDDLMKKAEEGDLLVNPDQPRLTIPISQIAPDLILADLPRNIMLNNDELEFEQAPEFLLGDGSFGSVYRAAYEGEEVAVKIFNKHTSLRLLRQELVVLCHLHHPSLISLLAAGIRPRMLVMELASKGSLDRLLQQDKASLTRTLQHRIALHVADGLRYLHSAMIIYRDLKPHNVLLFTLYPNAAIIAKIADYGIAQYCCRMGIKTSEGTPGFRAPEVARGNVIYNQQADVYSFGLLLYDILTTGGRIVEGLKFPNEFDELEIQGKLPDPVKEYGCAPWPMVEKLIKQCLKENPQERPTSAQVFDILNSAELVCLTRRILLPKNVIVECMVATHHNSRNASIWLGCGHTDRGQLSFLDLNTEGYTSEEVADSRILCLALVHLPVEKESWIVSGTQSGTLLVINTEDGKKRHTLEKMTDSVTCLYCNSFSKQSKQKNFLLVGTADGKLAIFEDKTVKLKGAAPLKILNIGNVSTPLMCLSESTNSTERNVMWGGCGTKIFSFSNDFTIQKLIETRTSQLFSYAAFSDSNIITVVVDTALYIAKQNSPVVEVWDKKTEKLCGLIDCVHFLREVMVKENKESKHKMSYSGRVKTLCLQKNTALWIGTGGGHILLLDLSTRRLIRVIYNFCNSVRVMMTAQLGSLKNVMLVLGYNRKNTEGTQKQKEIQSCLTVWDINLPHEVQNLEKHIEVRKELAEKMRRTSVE
For assay [3], the target named is T1, Tyrosine-protein kinase ITK/TSK (Homo sapiens) (UniProt Q08881).
T1 sequence (whole entry): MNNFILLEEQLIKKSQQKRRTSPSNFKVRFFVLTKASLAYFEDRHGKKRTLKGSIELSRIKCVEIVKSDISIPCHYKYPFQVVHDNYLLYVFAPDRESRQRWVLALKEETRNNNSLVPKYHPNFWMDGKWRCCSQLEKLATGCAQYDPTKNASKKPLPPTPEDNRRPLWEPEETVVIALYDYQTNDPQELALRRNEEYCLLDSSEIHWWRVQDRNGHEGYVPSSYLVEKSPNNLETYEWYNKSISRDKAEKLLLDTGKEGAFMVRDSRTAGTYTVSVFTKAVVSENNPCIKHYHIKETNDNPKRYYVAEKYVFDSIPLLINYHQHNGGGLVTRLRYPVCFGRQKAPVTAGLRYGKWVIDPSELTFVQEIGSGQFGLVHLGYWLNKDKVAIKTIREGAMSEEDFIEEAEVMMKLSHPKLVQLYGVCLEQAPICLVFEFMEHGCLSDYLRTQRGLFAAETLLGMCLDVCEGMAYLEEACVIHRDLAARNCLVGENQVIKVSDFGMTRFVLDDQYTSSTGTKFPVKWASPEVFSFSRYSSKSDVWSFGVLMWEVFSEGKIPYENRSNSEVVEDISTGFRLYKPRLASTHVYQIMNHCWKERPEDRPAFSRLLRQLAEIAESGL
Nature of the assay: Inhibition of human ITK at 18.6 nM by HotSpot assay relative to control.

For assay [4], the target named is Maternal embryonic leucine zipper kinase (Homo sapiens) (UniProt Q14680). Nature of the assay: Inhibition of human MELK at 18.6 nM by HotSpot assay relative to control.
Sequence of Maternal embryonic leucine zipper kinase (Homo sapiens) (Q14680 whole entry, looked up): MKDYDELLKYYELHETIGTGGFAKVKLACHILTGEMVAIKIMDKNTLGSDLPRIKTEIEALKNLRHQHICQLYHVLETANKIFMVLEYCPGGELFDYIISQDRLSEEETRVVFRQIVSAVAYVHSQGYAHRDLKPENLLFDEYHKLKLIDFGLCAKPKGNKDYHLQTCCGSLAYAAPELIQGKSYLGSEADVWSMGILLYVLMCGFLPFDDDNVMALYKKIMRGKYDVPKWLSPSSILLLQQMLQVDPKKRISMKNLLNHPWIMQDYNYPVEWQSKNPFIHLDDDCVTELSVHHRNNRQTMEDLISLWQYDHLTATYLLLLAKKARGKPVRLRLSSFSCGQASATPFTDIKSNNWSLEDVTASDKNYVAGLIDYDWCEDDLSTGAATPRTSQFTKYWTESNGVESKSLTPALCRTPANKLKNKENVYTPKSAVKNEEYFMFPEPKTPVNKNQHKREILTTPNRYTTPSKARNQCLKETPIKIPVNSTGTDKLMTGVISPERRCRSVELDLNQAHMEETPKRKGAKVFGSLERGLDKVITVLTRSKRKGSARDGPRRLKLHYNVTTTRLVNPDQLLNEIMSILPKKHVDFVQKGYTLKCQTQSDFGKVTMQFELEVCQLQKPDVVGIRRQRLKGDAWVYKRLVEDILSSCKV
The target in assay [5] is T2, Serine/threonine-protein kinase STK11 (Homo sapiens) (UniProt Q15831).
T2 sequence (whole entry): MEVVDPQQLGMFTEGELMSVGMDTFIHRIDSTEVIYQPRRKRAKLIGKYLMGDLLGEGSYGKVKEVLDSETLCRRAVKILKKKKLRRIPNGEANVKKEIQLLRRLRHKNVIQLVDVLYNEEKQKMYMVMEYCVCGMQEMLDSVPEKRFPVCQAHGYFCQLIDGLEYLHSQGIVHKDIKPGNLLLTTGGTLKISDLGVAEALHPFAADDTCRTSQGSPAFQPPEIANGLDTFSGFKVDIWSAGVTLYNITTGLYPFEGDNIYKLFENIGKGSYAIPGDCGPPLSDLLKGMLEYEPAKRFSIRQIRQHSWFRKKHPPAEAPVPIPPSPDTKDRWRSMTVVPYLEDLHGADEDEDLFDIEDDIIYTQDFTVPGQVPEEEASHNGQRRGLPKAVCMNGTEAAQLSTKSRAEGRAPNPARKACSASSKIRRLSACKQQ
As to the kind of experiment: Inhibition of human LKB1 at 1.82 nM by HotSpot assay relative to control.

The target of assay [6] is T3, Homeodomain-interacting protein kinase 4 (Homo sapiens) (UniProt Q8NE63).
T3 sequence (whole entry): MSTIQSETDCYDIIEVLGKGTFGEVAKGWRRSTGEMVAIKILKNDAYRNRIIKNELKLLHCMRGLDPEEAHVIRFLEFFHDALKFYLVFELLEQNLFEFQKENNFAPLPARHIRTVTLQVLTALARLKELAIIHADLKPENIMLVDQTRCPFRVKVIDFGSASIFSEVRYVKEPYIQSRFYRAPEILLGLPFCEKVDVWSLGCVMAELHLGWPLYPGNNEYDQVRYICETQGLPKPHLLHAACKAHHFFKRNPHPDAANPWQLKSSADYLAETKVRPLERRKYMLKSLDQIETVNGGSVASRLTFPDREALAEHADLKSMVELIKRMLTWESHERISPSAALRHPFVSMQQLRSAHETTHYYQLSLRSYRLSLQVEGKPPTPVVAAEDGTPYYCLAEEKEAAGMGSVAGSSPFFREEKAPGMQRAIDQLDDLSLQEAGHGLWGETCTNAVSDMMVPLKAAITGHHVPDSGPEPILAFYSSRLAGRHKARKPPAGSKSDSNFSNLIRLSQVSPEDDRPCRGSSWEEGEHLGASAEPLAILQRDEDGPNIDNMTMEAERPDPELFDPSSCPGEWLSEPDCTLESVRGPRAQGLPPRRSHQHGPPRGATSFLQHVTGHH
Nature of the assay: Inhibition of human HIPK4 at 1.82 nM by HotSpot assay relative to control.

The target in assay [7] is T4, Discoidin domain-containing receptor 2 (Homo sapiens) (UniProt Q16832).
T4 sequence (whole entry): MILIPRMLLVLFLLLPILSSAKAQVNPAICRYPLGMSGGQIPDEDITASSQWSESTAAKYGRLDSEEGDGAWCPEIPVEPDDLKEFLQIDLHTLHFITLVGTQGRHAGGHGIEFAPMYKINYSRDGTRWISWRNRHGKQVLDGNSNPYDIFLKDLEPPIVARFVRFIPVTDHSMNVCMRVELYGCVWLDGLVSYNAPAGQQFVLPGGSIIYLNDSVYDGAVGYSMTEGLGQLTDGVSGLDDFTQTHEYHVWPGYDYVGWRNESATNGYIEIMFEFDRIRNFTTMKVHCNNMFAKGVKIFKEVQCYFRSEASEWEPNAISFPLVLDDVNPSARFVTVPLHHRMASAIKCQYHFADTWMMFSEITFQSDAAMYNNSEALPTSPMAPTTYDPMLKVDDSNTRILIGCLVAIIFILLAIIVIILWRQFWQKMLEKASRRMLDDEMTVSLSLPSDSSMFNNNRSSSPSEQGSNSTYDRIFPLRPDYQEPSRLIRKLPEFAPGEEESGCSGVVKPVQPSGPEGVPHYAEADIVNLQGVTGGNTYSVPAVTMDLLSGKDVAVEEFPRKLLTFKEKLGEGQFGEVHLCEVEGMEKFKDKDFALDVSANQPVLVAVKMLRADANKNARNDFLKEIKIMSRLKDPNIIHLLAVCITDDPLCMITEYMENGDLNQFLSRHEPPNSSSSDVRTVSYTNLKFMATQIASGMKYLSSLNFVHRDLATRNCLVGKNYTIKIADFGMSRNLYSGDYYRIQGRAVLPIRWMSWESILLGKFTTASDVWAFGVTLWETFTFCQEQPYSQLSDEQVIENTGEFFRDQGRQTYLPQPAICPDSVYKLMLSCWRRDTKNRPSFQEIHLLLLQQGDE
As to the kind of experiment: Inhibition of human DDR2 at 1.82 nM by HotSpot assay relative to control.

Molecules are shown by their SMILES.

`C[C@]1(O)C[C@@H](c2nc(-c3ccc4ccc(-c5ccccc5)nc4c3)c3c(N)nccn32)C1`: the inhibition in assay [1] is -1.08%; in assay [2], -3.07%; in assay [3] it was -7.85%; in assay [4] it was -2.08%.

For the molecule `C[C@@]1(C(=O)Nc2ccc(F)nc2)CCCN1c1nc(Nc2cc(C3CC3)n[nH]2)c2cccn2n1`, the results for the inhibition in assay [5], in assay [6] and in assay [7] were 4.47%, -0.23% and -7.91%, respectively.

As a reminder, the inhibition is the change of the read-out against control, counted positive when it falls.
